Experimental data as given in patent publication US10251835B2, “Cranial delivery of pharmaceuticals” (GLIA, LLC, priority 2013, dated 2019).
Entries after “also recorded” stand apart in the source; their conditions may differ.

How the values were obtained:
[1] = system: male and female with cyclosporine-induced eye irritation; experiment: Treatment of drug-induced eye irritation; assay type: in vivo, human; settings: 1% progesterone to forehead after cleaning off drug residual; within two minutes
Text: Ten minutes later, drug residual was cleaned off from the forehead, and 1% progesterone was applied.

[2] = system: patients with ocular discomfort resulting from dry eye; experiment: Treatment of dry eye with topical progesterone applied cranially; assay type: in vivo, human
[3] = system: patient with corneal Herpes zoster; experiment: Treatment of herpetic keratitis; assay type: in vivo, human; settings: one year, 1 mg progesterone to forehead 2 or 3 times a day, no other drugs
[4] = system: patient with corneal Herpes zoster; experiment: Treatment of herpetic keratitis; assay type: in vivo, human; settings: for intraocular pressure: ganciclovir gel plus progesterone to forehead
Text: A person suffered a first onset of active corneal Herpes zoster. They presented with classic Herpes Zoster symptoms including, left hemisphere unilateral skin lesions on forehead, bridge of nose area and down the nose not including the tip; left cornea dendrites, keratitis and edema; loss of functional vision, elevated intraocular pressure as high as 42 mm Hg, conjunctival irritation and redness and anesthetic cornea. There were also general body flu symptoms.
The patient was initially treated with ophthalmic prednisolone acetate 1% up to 5 times daily, ophthalmic antibiotics, non-prescription ophthalmic wetting agents, and lubrication with gels administered to the eye. Additional drug therapies included systemic oral valcyclovir as high as 2 g per day and medications to reduce intraocular pressure.
Despite the therapy, symptom flare-up was as frequent as 2 weeks to 1 month over the past 10 years. Although intraocular pressure returned to within the normal range, cataracts formed as a result of long term use of corticosteroids.
The cornea surface contour became increasingly distorted with prominent ridges. There was incursion of capillaries across the conjunctiva into the cornea, both superficially and deep. Deposition of phospholipids through a leaching process occluded the cornea with grey color deposits on about 50% of its surface.
Corneal thinning had progressed to near perforation levels which required preparation for corneal patch surgery.
At this point, 1% topical progesterone (approximately 1 mg of progesterone) was first administered as a method to keep the cornea from perforating and the tear film intact. The drug was applied to the forehead 4 times daily together with topical antibiotics and corticosteroids.
After stabilizing the cornea, antiviral treatment was begun with ganciclovir gel (0.15%; 0.15 mg of drug) applied five times daily to the forehead together with once daily progesterone (1%; 1 mg of drug) and a nightly drop of ophthalmic antibiotic. Intraocular pressure measured at the onset of ganciclovir treatment was 18 mm Hg.
The patient reported a decrease in eye strain as a result of an improvement in tear film. […] Over the next two weeks, inflammation was further reduced and visual acuity increased somewhat when the head was tilted back. During the first full month of treatment, the affected eye generally felt comfortable. There was a lack of inflammation, and some vision returned to the threshold of functionality. Intraocular pressure remained normal in the range of 16 mm Hg.
There was modest improvement in reading the eye chart, and corneal staining due to defects was minimized. Intraocular pressure remained normal in both eyes at about 16 mm Hg during this period. The phospholipid deposits further reduced in density and began to give the appearance of lesser areas of concentrations. Nearly functional vision could be achieved by positioning the head back and viewing through the central cornea. The residual clear area of the cornea became more so and less inflamed. Through the end of the second month, improvement to the cornea accelerated. The pupil was now clearly visible and more light was entering the eye.
The patient was examined regularly by an ophthalmologist, and after three and one half months of treatment. The intraocular pressure was normal at 12 mm Hg. […] Intraocular pressure has remained in the same range for more than one year.

[5] = system: subject with left-side trigeminal neuralgia and facial droop; experiment: Treatment of trigeminal neuralgia and facial palsy; assay type: in vivo, human; settings: progesterone 1% (1 mg) four times daily to forehead followed by 0.15 g ganciclovir (0.15% formulation) up to five times daily
Protocol: A subject presented with left-side trigeminal neuralgia and left side facial droop of 10 years duration. Therapy was initiated by topically applying progesterone (1% by weight) equivalent to 1 mg four times daily to the patient's forehead. This was followed by application of 0.15 g ganciclovir (as a 0.15% by weight formulation) up to five times daily.

[6] = system: females with wrist fracture pain or wrist arthritis; experiment: Treatment of pain; assay type: in vivo, human; settings: person
Text: A person suffered a wrist fracture of the left distal radius and ulnar styloid, with subsequent severe pain.
A person was diagnosed 10 years ago with arthritis in their right wrist, with pain, weakness, and limited motion in the hand and wrist. […] The condition has worsened since they were first diagnosed. The individual is being treated with regular steroid injections. […] They are able to twist open tightly closed containers. Additionally, bone snapping sounds and feelings are no longer present.

[7] = system: patients with ocular discomfort resulting from dry eye; experiment: Treatment of dry eye with topical progesterone applied cranially; assay type: in vivo, human; remark: listed apart in the source
Protocol: Twenty-seven patients diagnosed with ocular discomfort resulting from dry eye were treated with topical progesterone (0.5%-1% by weight, corresponding to approximately 1-4 mg progesterone per application) applied to the forehead either once or twice per day.
A summary of clinical results is shown below in Table 2.

[8] = system: post-surgical patients on glaucoma medication; experiment: Treatment of ocular discomfort and redness in post-surgical patients and patients on glaucoma medication; assay type: in vivo, human; settings: 1% progesterone to forehead, three times daily or 2-3 times then once a day
Text: A […] […] had four eye surgeries and was being treated with two glaucoma eye drops (dorzolamide-timolol combination and travaprost) together with a lubricating eye gel twice a day.
A […] […] had multiple surgeries and was diagnosed with Fuch's corneal dystrophy and narrow angle glaucoma. Prior to the latest surgery, when they were almost legally blind, they started applying to their forehead 1% progesterone 2-3 times a day, then reduced the application frequency to once a day.

[9] = system: person with blepharospasm; experiment: Treatment of blepharospasm; assay type: in vivo, human; settings: fourteen days of 1% progesterone gel to forehead; before treatment 73
Text: Upon ophthalmic re-examination following fourteen days of 1% progesterone gel applied topically to the forehead, the blink rate had decreased to 18 times per minute.

[10] = system: dogs with mucus discharge from the eyes; experiment: Treatment of dry eye in domestic animals; assay type: in vivo, dog
Text: A puggle presented with mucus discharge from the eyes. […] The owner reported that the dog has this problem spring and fall, which indicates it is allergic seasonal rhinitis. The reported use took place in the fall.
A bulldog diagnosed with Sjogren's syndrome had mucus discharge from the eyes.

CC(=O)[C@H]1CC[C@H]2[C@@H]3CCC4=CC(=O)CC[C@]4(C)[C@H]3CC[C@]12C [progesterone]
relief of cyclosporine-induced irritation and stinging [1]: irritation and stinging began to dissipate | Results ([2]; 1% progesterone TID): Stopped using lubricating drops. Redness,; also recorded: itching and scaly eyelids disappeared | TBUT ([2]; subject 18, 1% progesterone 2-3 times/day, increased from 2): TBUT increased from 2 to 8. Long term | corneal perforation [3]: the cornea remained unperforated | corneal deterioration ([4]; 1% progesterone (about 1 mg) to forehead 4 times daily together with topical antibiotics and corticosteroids): Further corneal deterioration was halted | inflammation, visual acuity and state of affected eye ([4]; ganciclovir gel 0.15% (0.15 mg) five times daily plus progesterone 1% (1 mg) once daily to forehead, nightly ophthalmic antibiotic, 1 week to 3.5 months): less inflammation and a slight improvement in visual acuity; also recorded: some functional vision was attained; also recorded: stable and normalizing | intraocular pressure ([4]; after three and one half months): 12 mm Hg | intraocular pressure ([4]; both eyes, examination period up to third month): about 16 mm Hg | intraocular pressure ([4]; first full month of treatment): ~16 mm Hg | facial muscles contracted for 10 years [5]: relaxation of facial muscles | wrist pain, mobility and strength ([6]; arthritis, five days after applying 1% progesterone to forehead): significantly less wrist pain and increased mobility and strength | time to significant decrease in pain ([6]; wrist fracture, approximately 4 mg progesterone to forehead): ≤ 15 min | Results ([7]; 0.5-1% on the forehead, once daily): After prolonged use, no longer requires; also recorded: Eyes moist and tearing minutes after; also recorded: application. Stopped all auxiliary eye | Results ([7]; 1% progesterone ON): Equally effective. Uses nightly once a day | overall clinical result in twenty-seven dry eye patients ([7]; progesterone 0.5%-1% (about 1-4 mg per application) to forehead once or twice per day): Improvement was seen in all cases; also recorded: Most patients were able to discontinue previous therapy | time until moisture felt ([7]; subject 4, 1% progesterone): moisture felt after 10 minutes; after weeks | ocular discomfort, redness and need for lubricating drops [8]: able to stop using the lubricating drops; also recorded: Redness also disappeared; also recorded: helped to ease irritation, lid sticking and redness | blink rate [9]: 18 times per minute | time to effect on mucus discharge from the eyes ([10]; progesterone to the dog's forehead (puggle; bulldog with Sjogren's syndrome)): ≤ 24 h | mucus discharge from the eyes ([10]; progesterone topical forehead treatment, daily): the problem no longer recurred; also recorded: cessation of mucus discharge
